The values below are quoted from earlier work in patent US20040101542A1, “Skin care composition with retinyl ester as vitamin a propionate retinyl palmitate d-alpha tocopherol rice amino acids and liposomes and method of application” (priority 2003, published 2004).

For the data set the following is noted: at 24 hours.

As to `CC1=C(/C=C/C(C)=C/C=C/C(C)=C/C(=O)O)C(C)(C)CCC1` [retinoic acid], the “uptake and distribution in the deeper skin strata, liposomal formulations versus solutions or emulsions” value is given as 3-4 times higher.
